# Patent publication US20210214341A1, “SUBSTITUTED PYRIDINYL AZETIDINONE DERIVATIVES FOR USE IN TREATING CANCER AND OTHER DISEASES” (The Board of Regents of the University of Texas System, priority 2018, published 2021)
# Like-named read-outs stand apart in the source and are kept apart here.
# Assays:
# [1] = system: pancreatic cancer cells PANC-1 (ATCC CRL-1469); assay: SRB (Sulforhodamine B) assay in PANC-1 cells; format: cell-based; conditions: Homo sapiens, read-out: IC50 (PANC-1)
# Description: (§1) FIGS. 1A-1B show the IC50 curves of the twelve investigational β-lactams in pancreatic cancer cells PANC-1 (ATCC CRL-1469) and normal pancreatic ductal epithelial cells (ATCC CRL-4038). The GraphPad Prism software was used to process the results. The IC50 values were determined by SRB (Sulforhodamine B) assay following standard procedure. PANC-1 cells were plated in 96 well plates and treated with 1, 10, 100, 1000 and 10,000 nM of each of the drugs in triplicate for 72 hrs. Cells were fixed, washed and stained with SRB dye, the stained cells were washed, and the dye solubilized. It was read using a plate reader at 565 nm. The IC50 values were calculated assuming that the 10 μM sample has reached saturation. Following similar way, IC50 values were determined for normal pancreatic ductal epithelial cells.
# (§2) As mentioned earlier, PANC-1 is referred to generically as the “gold standard of pancreatic cancers” representing as it does almost total resistance to GEM, the first line treatment currently used in clinical situations. Pancreatic cancer cells PANC-1 (ATCC CRL-1469) and normal pancreatic ductal epithelial cells (ATCC CRL-4038) were used in this study. The GraphPad Prism software was used to process the results. […] Cells were fixed, washed and stained with SRB dye, the stained cells were washed, and the dye solubilized. It was read using a plate reader at 565 nm. The IC50 values were calculated assuming that the 10 μM sample has reached saturation. Following similar way, IC50 values were determined for normal pancreatic ductal epithelial cells.
# [2] = system: normal pancreatic ductal epithelial cells (ATCC CRL-4038); assay: SRB (Sulforhodamine B) assay in normal pancreatic ductal epithelial cells; format: cell-based; conditions: Epithelial cell, read-out: IC50 (NPC)
# Description: as §1, §2
# [3] = system: PANC-1 tumorspheres; assay: 3D-tumorsphere formation assay; format: cell-based, human; conditions: for IC50: Homo sapiens, tumorspheres larger than 100 micrometers counted after 144 hrs
# Description: Number of tumorspheres formed can be used to distinguish the efficacy of different anticancer drugs in a more physically acceptable method than 2D culture. Based on selectivity and toxicity towards PANC-1 cells in comparison to normal pancreatic ductal epithelial cells (Table D), six compounds (A, B, C, E, F, and G) were chosen for the 3D-tumorsphere formation assay. The assay was carried out by following the protocol developed by Johnson et al., (2013). PANC-1 cells (5000) were plated as single cells in Corning ultra-low attachment 24 well plates in 0.5 ml DMEM+10% FBS. The cells were grown in a humidified atmosphere of 5% CO2 for 168 hrs. 0.1 ml Media was added on 72nd and 144 hrs. The β-lactams were dissolved in DMSO and maintained at −20° C. On the day of assay, on the addition of media, the drugs were freshly diluted in media. The final concentrations of drugs were 0, 1 nM, 10 nM, 100 nM, 1 uM, 10 μM. After 144 hours the total number tumorspheres that were larger than 100 micrometers were counted in a field of 1 mm×1 mm at 10× magnification in a bright field microscope. The data was plotted and the IC50 value was calculated.
# 3D-tumorsphere formation assay is considered to be a fast and economical intermediary step between in vitro and in vivo biological evaluations. A tumorsphere is a solid, spherical formation developed from the proliferation of a single cancer stem/progenitor cell in 3D culture. These cells are easily distinguishable from single or aggregated as they appear to become fused together and individual cells cannot be appearing to become fused together and individual cells cannot be identified. The size can vary from less than 50 micrometers to 250 micrometers. The number of tumorspheres formed can be used to characterize the cancer stem cell population within different in vitro cultured cancer cell lines. The number of tumorspheres formed can also be used to distinguish the efficacy of different anticancer drugs in a more physically acceptable method than 2D culture. Based on selectivity and toxicity towards PANC-1 cells in comparison to normal pancreatic ductal epithelial cells (Table D), six compounds (A, B, C, E, F, and G) were chosen for the 3D-tumorsphere formation assay. The assay was carried out by following the protocol developed by Johnson et al., (2013). […] The below steps were followed to accomplish the assay. • 5000 PANC-1 cells were plated as single cells in Corning ultra-low attachment 24 well plates in 0.5 ml DMEM+10% FBS. • Cells were grown in a humidified atmosphere of 5% CO2 for 168 hrs. 0.1 ml Media was added on 72nd and 144 hrs. • Drugs were dissolved in DMSO and maintained at −20° C. On the day of assay, on the addition of media, the drugs were freshly diluted in media. • The final concentrations of drugs were 0, 1 nM, 10 nM, 100 nM, 1 μM, 10 μM. • After 144 hrs the total number tunorspheres that were larger than 100 micrometers were counted in a field of 1 mm×1 mm at 10× magnification in a bright field microscope. The data was plotted and the IC50 value was calculated.
# [4] = system: HPAF-II; assay: Cytotoxicity IC50 in HPAF-II cells; format: cell-based; conditions: Homo sapiens; HPAF-II cell line; read-out: IC50 (mean ± standard error)
# Description: (§3) B. Cytotoxicity Studies: Determination of IC50 Values (Single Run) in Capan-2, HPAC. HPAF-II, and HS766T Cell Lines
# (§4) Capan-2, HPAC. HPAF-H, and HS766T. The compounds A, D, E, G, and H were chosen randomly, out of twelve β-laclam molecules, to carry out this evaluation.
# [5] = system: HS 766T; assay: Cytotoxicity IC50 in HS 766T cells; format: cell-based; conditions: Homo sapiens, Hs766T; HS 766T cell line; read-out: IC50 (mean ± standard error)
# Description: as §3, §4
# [6] = system: PANC-1 cells; assay: Flow cytometric cell cycle analysis; format: cell-based, human; conditions: tested for 24, 48 and 72 hrs
# Description: The noise was cleared. […] After 72 hrs all the cells (including floaters) were collected, the adhered cells were trypsinized and collected as well. The cells were then centrifuged in a 50 mL centrifuge tube. The pellet was washed with PBS and reconstituted in 500 μL PBS. The cells were then fixed in ice cold ethanol by adding the ethanol dropwise while gently vortexing the cells. Stored at 4° C. for overnight. The cells were then centrifuged, and the pellet reconstituted in Guava cell cycle reagent and analyzed in a Guava flow cytometer. A similar experiment was conducted with normal pancreatic ductal epithelial cells (NPC) and the drug treatment was done according to the IC50 values observed in the 2D assay conducted on them (Table E). Please note that 2N represents G0/G1 and 4N for G2 phases.
# After 72 hrs all the cells (including floaters) were collected, the adhered cells were trypsinized and collected as well. The cells were then centrifuged in a 50 mL centrifuge tube. The pellet was washed with PBS and reconstituted in 500 μL PBS. The cells were then fixed in ice cold ethanol by adding the ethanol dropwise while gently vortexing the cells. […] The cells were then centrifuged, and the pellet reconstituted in Guava cell cycle reagent and analyzed in a Guava flowcytometer. […] First set of data with PANC-1 cells were analyzed by using FlowJo software, the noise was cleared (FIG. 3). […]
# [7] = system: pancreatic cancer cells PANC-1 (ATCC CRL-1469); conditions: cited from earlier work
# [8] = PANC-1, 2D-culture, SRB, 72 hrs, average of 3 runs
# [9] = 2D-culture, SRB, average of 3 runs
structure (smiles),measurement,setting,value
Cc1ccc(S(=O)(=O)O[C@@H]2C(=O)N(c3cc4c5ccccc5ccc4c4ccccc34)[C@H]2c2ccc(F)cn2)cc1 (racemic) [(±)-Trans-N-(chrysen-6-yl)-2-(5-fluoropyridin-2-yl)-4-oxoazetidin-3-yl 4-methylbenzenesulfonate],melting point,,220 to 221 °C
CS(=O)(=O)O[C@@H]1C(=O)N(c2cc3c4ccccc4ccc3c3ccccc23)[C@H]1c1ccc(F)cn1 (racemic) [(±)-Trans-N-(chrysen-6-yl)-2-(5-fluoropyridin-2-yl)-4-oxoazetidin-3-yl methanesulfonate],melting point,,253 to 254 °C
"N#CC1CN(S(=O)(=O)O[C@@H]2C(=O)N(c3cc4c5ccccc5ccc4c4ccccc34)[C@H]2c2ccc(F)cn2)C1 (racemic) [Compound C, (±)-Trans-N-(chrysen-6-yl)-2-(5-fluoropyridin-2-yl)-4-oxoazetidin-3-yl 3-cyanoazetidine-1-sulfonate]",IC50,[1]; [8],3.52 nM
same,IC50,[2]; [9],42.5 nM
same,activity in 3D-tumorsphere formation assay compared with 2D-culture,[3],higher activity in 3D-tumorphere formation assay than 2D-culture
same,IC50,[3],2.33 nM
same,melting point,,212 to 213 °C
"O=C1[C@@H](OS(=O)(=O)N2CCCC2)[C@H](c2ccc(F)cn2)N1c1cc2c3ccccc3ccc2c2ccccc12 (racemic) [Compound I, (±)-Trans-N-(chrysen-6-yl)-2-(5-fluoropyridin-2-yl)-4-oxoazetidin-3-yl pyrrolidine-1-sulfonate]",IC50,[1]; [8],58.6 nM
same,IC50,[2]; [9],201 nM
same,melting point,,205 to 206 °C
"CC(C)N(C)S(=O)(=O)O[C@@H]1C(=O)N(c2cc3c4ccccc4ccc3c3ccccc23)[C@H]1c1ccc(F)cn1 (racemic) [E, (±)-Trans-N-(chrysen-6-yl)-2-(5-fluoropyridin-2-yl)-4-oxoazetidin-3-yl isopropyl(methyl)sulfamate]",IC50,[4],500 ± 160 nM
same,IC50,[5],40 nM
same,IC50,[1]; [8],8.65 nM
same,IC50,[2]; [9],424 nM
same,activity in 3D-tumorsphere formation assay compared with 2D-culture,[3],higher activity in 3D-tumorphere formation assay than 2D-culture
same,IC50,[3],6.25 nM
same,melting point,,166 to 167 °C
"O=C1[C@@H](OS(=O)(=O)C2CC2)[C@H](c2ccc(F)cn2)N1c1cc2c3ccccc3ccc2c2ccccc12 (racemic) [F, (±)-Trans-N-(chrysen-6-yl)-2-(5-fluoropyridin-2-yl)-4-oxoazetidin-3-yl cyclopropanesulfonate]",IC50,[1]; [8],27.2 nM
same,IC50,[2]; [9],356 nM
same,activity in 3D-tumorsphere formation assay compared with 2D-culture,[3],higher activity in 3D-tumorphere formation assay than 2D-culture
same,IC50,[3],19.1 nM
same,melting point,,180 to 181 °C
"CN1CCN(S(=O)(=O)O[C@@H]2C(=O)N(c3cc4c5ccccc5ccc4c4ccccc34)[C@H]2c2ccc(F)cn2)CC1 (racemic) [G, (±)-Trans-N-(chrysen-6-yl)-2-(5-fluoropyridin-2-yl)-4-oxoazetidin-3-yl 4-methylpiperazine-1-sulfonate]",IC50,[4],1180 ± 260 nM
same,IC50,[1]; [8],2.69 nM
same,IC50,[2]; [9],8.43 nM
same,melting point,,146 to 147 °C
"C[Si](C)(C)CCS(=O)(=O)O[C@@H]1C(=O)N(c2cc3c4ccccc4ccc3c3ccccc23)[C@H]1c1ccc(F)cn1 (racemic) [H, (±)-Trans-N-(chrysen-6-yl)-2-(5-fluoropyridin-2-yl)-4-oxoazetidin-3-yl 2-(trimethylsilyl)ethane-1-sulfonate]",IC50,[4],660 ± 120 nM
same,IC50,[5],790 ± 120 nM
same,IC50,[1]; [8],30.4 nM
same,IC50,[2]; [9],48.5 nM
same,melting point,,210 to 211 °C
"CN(C)S(=O)(=O)O[C@@H]1C(=O)N(c2cc3c4ccccc4ccc3c3ccccc23)[C@H]1c1ccc(F)cn1 (racemic) [J, (±)-Trans-N-(chrysen-6-yl)-2-(5-fluoropyridin-2-yl)-4-oxoazetidin-3-yl dimethylsulfamate]",IC50,[1]; [8],212 nM
same,IC50,[2]; [9],1050 nM
same,melting point,,196 to 198 °C
"O=C=NS(=O)(=O)O[C@@H]1C(=O)N(c2cc3c4ccccc4ccc3c3ccccc23)[C@H]1c1ccc(F)cn1 (racemic) [K, (±)-Trans-N-(chrysen-6-yl)-2-(5-fluoropyridin-2-yl)-4-oxoazetidin-3-yl sulfurisocyanatidate]",IC50,"[1]; PANC-1, 72 h",29.6 nM
same,IC50,[2],416 nM
"Cc1ccc(S(=O)(=O)O[C@@H]2C(=O)N(c3cc4c5ccccc5ccc4c4ccccc34)[C@H]2c2ccc(F)cn2)cc1 (racemic) [L, (±)-Trans-N-(chrysen-6-yl)-2-(5-fluoropyridin-2-yl)-4-oxoazetidin-3-yl 4-methylbenzenesulfonate]",IC50,[1]; [8],3.38 nM
same,IC50,[2]; [9],13.3 nM
same,IC50,[3],4.57 nM
same,time of maximum cell cycle blockage,[6],72 h
CS(=O)(=O)O[C@H]1C(=O)N(c2cc3c4ccccc4ccc3c3ccccc23)C1c1ccccn1 (stereo partly drawn) [TX-262],IC50,"[7]; TX-262, from Banik et al., WO 2012/103456, read-out: IC50 (PANC-1)",430 nM
same,IC50,"[7]; TX-262, read-out: PANC-1 cell lines IC50",430 nM
